For data set [1], the target named is Bromodomain-containing protein 3 (Homo sapiens, UniProt Q15059). Nature of the data set: Binding affinity to full length BRD3 BD2 in human HuT78 cell lysates incubated for 45 mins by liquid chromatography-mass spectrometry based chemoproteomic binding assay. Format: subcellular.
The target in data set [2] is Bromodomain adjacent to zinc finger domain protein 2A (Homo sapiens, UniProt Q9UIF9). Nature of the data set: Binding affinity to human partial length BAZ2A (M1792 to L1905 residues) expressed in bacterial expression system by BROMOscan assay.
Data set [3] deals with Blood. Nature of the data set: Inhibition of LPS-induced TNFalpha production in human whole blood preincubated for 30 mins followed by LPS addition and measured after overnight incubation by mesoscale assay. Format: functional, tissue-based.
A short description of data set [4]: Lipophilicity, logD of the compound at pH 7.4 by chromatographic method. Format: physicochemical. The conditions noted are these: buffer.
Data set [5] has as its system Blood. Nature of the data set: Inhibition of LPS-induced MCP1 production in human whole blood preincubated for 30 mins followed by LPS addition and measured after overnight incubation by mesoscale assay. Format: functional, tissue-based.
Data set [6] concerns the target Bromodomain-containing protein 2 (Homo sapiens, UniProt P25440). Nature of the data set: Binding affinity to human partial length BRD2 bromodomain 2 isoform 1 (E348 to D455 residues) expressed in bacterial expression system by BROMOscan assay.
The target in data set [7] is T1, Transcription initiation factor TFIID subunit 1 (Homo sapiens, UniProt P21675). Kind of data set: Binding affinity to human partial length TAF1 bromodomain 2 (D1521 to D1656 residues) expressed in bacterial expression system by BROMOscan assay.
T1 sequence (P21675 whole entry, the tested form may be a part): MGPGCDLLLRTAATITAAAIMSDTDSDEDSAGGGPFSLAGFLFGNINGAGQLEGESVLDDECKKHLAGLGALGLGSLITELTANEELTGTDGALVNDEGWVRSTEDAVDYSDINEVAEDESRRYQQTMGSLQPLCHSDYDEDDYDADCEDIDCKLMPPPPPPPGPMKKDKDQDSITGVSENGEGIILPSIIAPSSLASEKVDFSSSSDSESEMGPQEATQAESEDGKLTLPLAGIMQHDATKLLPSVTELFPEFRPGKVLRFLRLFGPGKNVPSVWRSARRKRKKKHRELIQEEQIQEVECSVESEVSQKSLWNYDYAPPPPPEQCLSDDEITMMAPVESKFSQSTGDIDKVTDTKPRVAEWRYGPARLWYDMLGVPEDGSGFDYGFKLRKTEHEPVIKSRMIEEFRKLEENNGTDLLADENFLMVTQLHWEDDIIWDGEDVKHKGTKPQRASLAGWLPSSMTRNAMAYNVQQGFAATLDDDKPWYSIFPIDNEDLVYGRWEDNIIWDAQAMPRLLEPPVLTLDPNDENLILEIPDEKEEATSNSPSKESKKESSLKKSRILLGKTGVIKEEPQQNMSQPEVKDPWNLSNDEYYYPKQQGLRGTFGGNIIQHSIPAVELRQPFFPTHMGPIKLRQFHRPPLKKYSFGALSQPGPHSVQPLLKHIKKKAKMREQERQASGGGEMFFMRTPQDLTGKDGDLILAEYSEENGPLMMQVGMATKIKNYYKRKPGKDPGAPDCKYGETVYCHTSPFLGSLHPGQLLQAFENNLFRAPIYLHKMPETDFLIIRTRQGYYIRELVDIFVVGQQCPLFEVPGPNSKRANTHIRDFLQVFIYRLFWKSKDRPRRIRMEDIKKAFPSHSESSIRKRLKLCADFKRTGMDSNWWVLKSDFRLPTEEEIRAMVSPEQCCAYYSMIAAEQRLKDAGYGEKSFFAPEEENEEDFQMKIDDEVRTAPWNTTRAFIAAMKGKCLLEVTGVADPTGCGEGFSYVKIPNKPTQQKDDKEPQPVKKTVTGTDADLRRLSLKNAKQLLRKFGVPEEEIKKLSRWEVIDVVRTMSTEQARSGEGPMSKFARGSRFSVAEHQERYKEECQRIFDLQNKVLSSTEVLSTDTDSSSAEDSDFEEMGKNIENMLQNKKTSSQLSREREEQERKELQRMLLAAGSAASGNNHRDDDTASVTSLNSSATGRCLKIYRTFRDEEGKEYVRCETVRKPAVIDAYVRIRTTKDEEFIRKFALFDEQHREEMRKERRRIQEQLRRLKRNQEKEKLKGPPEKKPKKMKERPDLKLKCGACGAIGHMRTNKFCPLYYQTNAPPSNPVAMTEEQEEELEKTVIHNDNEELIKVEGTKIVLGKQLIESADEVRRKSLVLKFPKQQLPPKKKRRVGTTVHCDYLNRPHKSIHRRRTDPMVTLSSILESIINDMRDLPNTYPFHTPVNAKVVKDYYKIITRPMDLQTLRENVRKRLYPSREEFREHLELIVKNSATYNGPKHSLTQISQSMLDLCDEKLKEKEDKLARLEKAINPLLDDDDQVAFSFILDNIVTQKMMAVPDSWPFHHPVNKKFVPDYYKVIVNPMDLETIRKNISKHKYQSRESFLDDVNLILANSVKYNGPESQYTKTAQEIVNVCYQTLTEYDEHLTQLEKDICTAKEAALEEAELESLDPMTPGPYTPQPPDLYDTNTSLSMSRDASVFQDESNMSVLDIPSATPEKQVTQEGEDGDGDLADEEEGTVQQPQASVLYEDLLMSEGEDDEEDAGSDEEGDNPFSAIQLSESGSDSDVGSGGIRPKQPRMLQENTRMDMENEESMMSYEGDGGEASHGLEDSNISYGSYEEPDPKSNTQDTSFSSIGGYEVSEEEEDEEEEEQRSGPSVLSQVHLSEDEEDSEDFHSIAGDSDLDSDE
Another data set concerns the target Protein polybromo-1 (Homo sapiens, UniProt Q86U86). Kind of data set: Binding affinity to human partial length PBRM1 bromodomain 5 (S645 to D766 residues) expressed in bacterial expression system by BROMOscan assay.
Data set [8] addresses T1, Transcription initiation factor TFIID subunit 1. Nature of the data set: Binding affinity to full length TAF1 in human HuT78 cell lysates incubated for 45 mins by liquid chromatography-mass spectrometry based chemoproteomic binding assay. Format: subcellular.
In data set [9] the test system is B cell. Kind of data set: Downregulation of IL-17F secretion in human B cells cocultured with human PBMC at 0.37 to 10 uM preincubated for 1 hr followed by anti-IgM and TCR stimulation and measured after 84 hrs by ELISA. Format: functional, cell-based. The conditions noted are these: dose microM 0.37-10, time 1.0 hrs. On the technique in general: ELISA stands for enzyme-linked immunosorbent assay.

In data set [10] the test system is B cell. Nature of the data set: Downregulation of IL-2 secretion in human B cells cocultured with human PBMC at 0.37 to 10 uM preincubated for 1 hr followed by anti-IgM and TCR stimulation and measured after 84 hrs by ELISA. As to conditions: dose microM 0.37-10, time 1.0 hrs. Format: functional, cell-based.

The source made the active and inactive calls. The calls are words filed in the database; no cut-off is given here.

What is called Kd is the concentration at which binding is half-saturated. Read a high Kd as lower affinity. In general, IC50 refers to the midpoint of a concentration-inhibition curve. By chromatographic logD is commonly meant a lipophilicity value derived from retention on a column. Lower therefore signals a more hydrophilic compound.

Sequence of Bromodomain-containing protein 2 (P25440 whole entry, the tested form may be a part, canonical isoform): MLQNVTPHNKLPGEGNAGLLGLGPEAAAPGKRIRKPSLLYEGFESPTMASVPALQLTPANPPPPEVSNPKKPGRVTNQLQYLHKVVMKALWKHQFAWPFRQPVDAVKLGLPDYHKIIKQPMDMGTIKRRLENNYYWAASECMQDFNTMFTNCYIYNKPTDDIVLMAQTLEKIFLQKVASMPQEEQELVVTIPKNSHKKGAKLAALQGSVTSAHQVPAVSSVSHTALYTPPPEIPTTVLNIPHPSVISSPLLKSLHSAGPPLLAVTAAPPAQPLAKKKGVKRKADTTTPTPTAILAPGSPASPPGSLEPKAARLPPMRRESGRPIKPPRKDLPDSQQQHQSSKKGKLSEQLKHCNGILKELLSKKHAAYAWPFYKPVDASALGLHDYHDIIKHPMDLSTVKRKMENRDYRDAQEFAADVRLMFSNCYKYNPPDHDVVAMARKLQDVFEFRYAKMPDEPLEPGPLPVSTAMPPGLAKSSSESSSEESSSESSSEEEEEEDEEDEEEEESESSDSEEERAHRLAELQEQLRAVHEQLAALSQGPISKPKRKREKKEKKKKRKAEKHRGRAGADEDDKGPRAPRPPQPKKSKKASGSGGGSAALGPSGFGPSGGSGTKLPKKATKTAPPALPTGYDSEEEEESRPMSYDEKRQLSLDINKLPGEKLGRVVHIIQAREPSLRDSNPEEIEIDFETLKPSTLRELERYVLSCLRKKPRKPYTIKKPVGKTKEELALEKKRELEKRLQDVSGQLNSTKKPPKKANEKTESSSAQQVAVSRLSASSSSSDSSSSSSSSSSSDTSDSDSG
Sequence of Protein polybromo-1 (Q86U86 whole entry, the tested form may be a part): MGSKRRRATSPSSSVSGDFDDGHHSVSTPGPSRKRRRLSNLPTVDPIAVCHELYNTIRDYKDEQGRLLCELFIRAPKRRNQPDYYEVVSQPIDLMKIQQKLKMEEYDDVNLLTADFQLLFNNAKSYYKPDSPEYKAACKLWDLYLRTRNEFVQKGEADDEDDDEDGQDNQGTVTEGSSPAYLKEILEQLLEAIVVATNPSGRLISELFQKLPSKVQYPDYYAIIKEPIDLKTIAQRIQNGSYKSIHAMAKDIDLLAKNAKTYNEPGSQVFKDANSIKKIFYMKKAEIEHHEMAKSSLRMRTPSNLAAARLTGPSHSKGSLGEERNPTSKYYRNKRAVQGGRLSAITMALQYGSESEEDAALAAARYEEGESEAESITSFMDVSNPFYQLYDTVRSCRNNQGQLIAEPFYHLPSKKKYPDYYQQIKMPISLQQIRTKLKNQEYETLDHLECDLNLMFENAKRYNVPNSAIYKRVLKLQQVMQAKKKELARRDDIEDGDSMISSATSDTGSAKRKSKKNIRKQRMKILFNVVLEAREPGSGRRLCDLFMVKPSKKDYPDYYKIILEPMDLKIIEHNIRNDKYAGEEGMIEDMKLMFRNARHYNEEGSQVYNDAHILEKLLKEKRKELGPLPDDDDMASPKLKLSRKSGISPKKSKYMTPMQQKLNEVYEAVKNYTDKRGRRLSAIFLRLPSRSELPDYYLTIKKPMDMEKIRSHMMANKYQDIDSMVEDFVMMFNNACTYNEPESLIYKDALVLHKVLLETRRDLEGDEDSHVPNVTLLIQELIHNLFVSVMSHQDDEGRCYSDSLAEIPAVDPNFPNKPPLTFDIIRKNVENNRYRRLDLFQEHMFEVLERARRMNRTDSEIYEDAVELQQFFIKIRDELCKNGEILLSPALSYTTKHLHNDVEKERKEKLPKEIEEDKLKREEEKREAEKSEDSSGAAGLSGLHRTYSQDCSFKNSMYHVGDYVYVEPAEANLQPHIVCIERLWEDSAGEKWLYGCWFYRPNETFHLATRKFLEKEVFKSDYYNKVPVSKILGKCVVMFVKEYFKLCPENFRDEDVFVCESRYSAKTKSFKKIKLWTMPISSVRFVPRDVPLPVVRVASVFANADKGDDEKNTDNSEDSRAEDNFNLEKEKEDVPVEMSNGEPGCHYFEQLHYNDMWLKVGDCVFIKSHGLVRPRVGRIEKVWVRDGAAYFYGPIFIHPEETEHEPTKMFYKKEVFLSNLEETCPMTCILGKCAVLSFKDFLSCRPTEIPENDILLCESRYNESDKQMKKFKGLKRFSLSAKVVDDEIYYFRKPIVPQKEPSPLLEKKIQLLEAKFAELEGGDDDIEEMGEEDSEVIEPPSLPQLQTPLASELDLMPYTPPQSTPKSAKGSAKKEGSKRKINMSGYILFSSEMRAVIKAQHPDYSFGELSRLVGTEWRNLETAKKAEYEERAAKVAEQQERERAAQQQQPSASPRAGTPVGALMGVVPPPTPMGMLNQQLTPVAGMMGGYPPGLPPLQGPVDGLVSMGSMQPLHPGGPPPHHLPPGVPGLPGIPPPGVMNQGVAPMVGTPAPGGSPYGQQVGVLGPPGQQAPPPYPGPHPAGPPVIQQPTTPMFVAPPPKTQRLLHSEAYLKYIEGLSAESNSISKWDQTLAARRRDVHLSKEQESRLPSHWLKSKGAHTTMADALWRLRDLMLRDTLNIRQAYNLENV
Sequence of Bromodomain-containing protein 3 (Q15059 whole entry, the tested form may be a part): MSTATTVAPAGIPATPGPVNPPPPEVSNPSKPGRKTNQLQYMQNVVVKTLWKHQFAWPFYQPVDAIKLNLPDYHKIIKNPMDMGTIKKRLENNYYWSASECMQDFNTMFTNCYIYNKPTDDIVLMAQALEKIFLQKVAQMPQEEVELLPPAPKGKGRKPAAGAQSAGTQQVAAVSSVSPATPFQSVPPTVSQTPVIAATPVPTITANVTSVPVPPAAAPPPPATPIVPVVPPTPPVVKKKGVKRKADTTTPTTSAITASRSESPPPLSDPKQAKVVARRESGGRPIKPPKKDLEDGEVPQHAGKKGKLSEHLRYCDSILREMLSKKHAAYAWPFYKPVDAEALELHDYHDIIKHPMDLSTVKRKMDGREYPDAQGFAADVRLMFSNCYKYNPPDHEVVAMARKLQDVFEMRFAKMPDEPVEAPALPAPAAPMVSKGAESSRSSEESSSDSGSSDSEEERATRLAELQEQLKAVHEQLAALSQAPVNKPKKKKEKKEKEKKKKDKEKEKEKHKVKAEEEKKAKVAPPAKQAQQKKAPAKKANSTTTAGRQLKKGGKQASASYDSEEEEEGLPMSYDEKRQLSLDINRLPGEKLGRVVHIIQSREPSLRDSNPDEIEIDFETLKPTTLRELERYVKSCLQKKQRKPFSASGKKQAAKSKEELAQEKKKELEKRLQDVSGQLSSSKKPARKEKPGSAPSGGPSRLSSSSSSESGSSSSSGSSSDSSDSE

For `Cc1cc2c(-c3ccco3)cnc(N[C@@H]3CCN(C)C[C@H]3C(=O)NC3CCCCC3)c2[nH]c1=O` [GSK789], the dissociation constant Kd in [1] is 6.31 µM; in [2] it was 15.8 µM; in data set [6] it was 25.1 µM; in [7], 0.0501 µM; at Protein polybromo-1, 10 µM. The concentration for half-maximal inhibition (IC50) was 0.87 µM in the data set on Blood [3], 0.67 µM in the data set with Blood [5] and > 10 µM in data set [8]. Also, the chromatographic logD in data set [4] amounted to 3.99. In addition, the result with B cell [9] and with B cell [10] was Active.

Values taken from ChEMBL document CHEMBL4725292 (J Med Chem, 2020).
